Laboratory results reported in patent US11406642B2, “DNP and DNP prodrug treatment of neuromuscular, neurodegenerative, autoimmune, developmental, traumatic brain injury, concussion, dry eye disease, hearing loss and/or metabolic diseases” (priority 2016, dated 2022).
Like-named read-outs stand apart in the source and are kept apart here.

Assay: Plasma pharmacokinetics of II-38 and 2,4-DNP released from II-38
Assay type: in vivo, Sprague-Dawley male rats
Conditions: for half-life: read-out: t1/2 of II-38; for bioavailability: read-out: % F of II-38
Procedure: The oral bioavailability and plasma pharmacokinetic (PK) properties of II-38 prodrug and 2,4-DNP-released from II-38 prodrug was investigated in Sprague-Dawley (S-D) male rats after a single i.v. injection of II-38 at 1.6 mg/kg (eq. to 1 mg/kg 2,4-DNP) and an oral dose eq. to 5, 25 and 50 mg/kg of 2,4-DNP. Blood samples were taken up to […].
All procedures that involved the use of rats were conducted in accordance with the guidelines set forth by the University of Arkansas for Medical Sciences (UAMS) Institutional Animal Care and Use Committee established by the National Institutes of Health's Guide for the Care and Use of Laboratory Animals (1996). Male Sprague-Dawley rats weighing 250-300 grams were housed three per cage with ad libitum access to food and water in the Division of Laboratory Animal Resources, UAMS. Rats were anesthetized with isofluorane (2-5%)/oxygen (1.5-2.0 L/min) and surgically implanted with cannulae in the jugular (i.v. dosing) and femoral (blood sampling) veins. […] Following appropriate evidence of successful recovery from surgery, IV or oral dosing was performed and blood samples (0.15 mL) were collected at 0, 5, 15, 30, 45, 60, 120, 240 and 480 min. Plasma samples were prepared and analysis was run using a LC/MS/MS spectrometry.
For the i.v. injection, a total volume of 0.8 mL/kg was used at a dose of 1.6 mg/kg (eq. to 1 mg/kg of 2,4-DNP). For the oral route, stock solutions of II-38 containing eq. to 1, 5 and 25 mg/mL of 2,4-DNP were prepared and administered to rats at final doses eq. to 1, 5 and 25 mg/kg of 2,4-DNP, respectively. An oral dose of 8 mg/kg of II-38 (eq. to 5 mg/kg) was dissolved in a phosphate-saline buffer solution, pH 7.4 containing 5% DMSO and 20% PEG-400, while a dose of 40 mg/kg (eq. to 25 mg/kg) was formulated with 0.5% methyl cellulose (methocel) containing 1% DMSO. A high dose of II-38 (eq. 50 mg/kg) was formulated with water containing 1% DMSO and 40% PEG-400. Because of the different vehicles used in formulations of II-38, a dose eq. to 25 mg/kg of 2,4-DNP was repeated using a vehicle consisting of DMSO, PEG-400, and water (1%: 40%: 59%). The later dose was utilized for comparison of PK data of 2,4-DNP-released from II-38 for differences in formulations.
Jugular and femoral vein-catheterized Sprague-Dawley male rats (weights 250-300 g, n=4) were treated with II-38 at a single oral dose of 8, 40 and 80 mg/kg (eq. to 5, 25 and 50 mg/kg of 2,4-DNP, respectively) or injected a single i.v. dose of 1.6 mg/kg of II-38 (eq. to 1 mg/kg 2,4-DNP, n=2). Blood samples (0.15 mL) were collected at 0, 5, 15, 30, 45, 60, 120, 240 and 480 min. Plasma samples were prepared and 2,4-DNP, II-38 and 2,4-DNP-released from II-38 concentrations were quantitated using the LC/MS/MS spectrometry assay method described below.
To isolate the analytes from rat plasma, 50 μL of control or treated plasma fortified with 10 μL of 2,4-DNP-d3 (10 μg/mL) as an internal standard to which 0.3 mL of methanol followed by 0.3 mL of acetonitrile was added. The mixture was vortex-mixed for 30 s and centrifuged for 10 min at 10,000 rpm at room temperature. The supernatant was transferred into 5 mL glass tubes and evaporated to dryness at 37° C. under nitrogen gas. The pellet was reconstituted with 50 μL of acetonitrile, vortex-mixed for 30 sec, followed by sonication for 1 min. Following centrifugation at 1000 rpm for 10 min at room temperature, 5 μL of the supernatant was then injected onto the column, and analytes were quantified by a LC/MS/MS spectrometry.
1—Plasma concentrations of 2,4-DNP after a single i.v. injection of 2,4-DNP of 1 mg/kg or 5 mg/kg oral administration; 2—Plasma concentrations of II-38 and 2,4-DNP-released from II-38 after an i.v. injection 1.6 mg/kg of II-38 eq. to 1 mg/kg of 2,4-DNP or an oral dose of 8, 40 and 80 mg/kg of II-38 eq. to 5, 25 and 50 mg/kg of 2,4-DNP, respectively. […]

[1] = male, Sprague-Dawley, rat, in vivo, iv, 1.6 mg/kg, single i.v. injection of II-38 1.6 mg/kg (eq. to 1 mg/kg 2,4-DNP), n = 2
[2] = male, Sprague-Dawley, rat, in vivo, po, 5 mg/kg, oral II-38 eq. to 5 mg/kg of 2,4-DNP
[3] = male, Sprague-Dawley, rat, in vivo, po, 25 mg/kg, oral II-38 eq. to 25 mg/kg of 2,4-DNP, PEG-400
[4] = male, Sprague-Dawley, rat, in vivo, po, 25 mg/kg, oral II-38 eq. to 25 mg/kg of 2,4-DNP, methocel
[5] = male, Sprague-Dawley, rat, in vivo, po, 50 mg/kg, oral II-38 eq. 50 mg/kg of 2,4-DNP

O=[N+]([O-])c1ccc(O)c([N+](=O)[O-])c1 [2,4-DNP, 2,4-dinitrophenol]
fold increased level of 2,4-DNP after oral 2,4-DNP compared to 2,4-DNP released from II-38 (2,4-DNP 5 mg/kg oral vs II-38 oral eq. to 5 mg/kg): approximately 12.0 fold | fold increased level of 2,4-DNP after oral 2,4-DNP compared to 2,4-DNP released from II-38 (2,4-DNP 5 mg/kg oral vs II-38 oral eq. to 25 mg/kg (PEG-400)): ~3.4 fold | fold increased level of 2,4-DNP after oral 2,4-DNP compared to 2,4-DNP released from II-38 (2,4-DNP 5 mg/kg oral vs II-38 oral eq. to 25 mg/kg (methocel)): ~2.2 fold | fold increased level of 2,4-DNP after oral 2,4-DNP compared to 2,4-DNP released from II-38 (2,4-DNP 5 mg/kg oral vs II-38 oral eq. to 50 mg/kg): ~1.4 fold

O=C(Oc1ccc([N+](=O)[O-])cc1[N+](=O)[O-])N1CCOCC1 [II-38, 2,4-Dinitrophenyl morpholine-4-carboxylate]
AUC [1]: 8600 ng·h/mL | Cmax [1]: 900 ± 50 ng/mL | half-life [1]: 6.89 ± 1.09 h | clearance (male, Sprague-Dawley, rat, in vivo, iv, single i.v. injection of II-38 1.6 mg/kg (eq. to 1 mg/kg 2,4-DNP), n = 2, read-out: Cl of II-38): 3.1 ± 0.3 mL/min/kg | Vd (male, Sprague-Dawley, rat, in vivo, iv, single i.v. injection of II-38 1.6 mg/kg (eq. to 1 mg/kg 2,4-DNP), n = 2, read-out: Vss of II-38): 1.86 ± 0.101 L/kg | AUC [2]: 15000 ng·h/mL | Cmax [2]: 1100 ± 200 ng/mL | Tmax [2]: 2.19 h | bioavailability [2]: 44.8 ± 4.4% | half-life [2]: 15.2 ± 7 h | AUC [3]: 14600 ng·h/mL | Cmax [3]: 2410 ± 300 ng/mL | Tmax [3]: 1.5 h | bioavailability [3]: 21.3 ± 0.9% | half-life [3]: 7.41 ± 3.06 h | AUC [4]: 18400 ng·h/mL | Cmax [4]: 1800 ± 300 ng/mL | Tmax [4]: 0.458 h | bioavailability [4]: 31.6 ± 1.2% | half-life [4]: 11 ± 4.2 h | AUC [5]: 24300 ng·h/mL | Cmax [5]: 1900 ± 600 ng/mL | Tmax [5]: 1.69 h | bioavailability [5]: 24.5 ± 1.1% | half-life [5]: 17.7 ± 6.96 h
